Assay results as given in patent US20040096845A1, “Peritoneal dialysates” (priority 2000, published 2004).
Read-outs that look alike come from different tables or passages of the source.

Columns and labels:
[1] = tested on: AGE formation in peritoneum tissue; conditions: rat
Collagen IV = experiment: Suppression of methylglyoxal-induced cross linking of collagen IV, by fluorescent intensity; type: biochemical
[2] = Redox potential of cross linking suppressors; type: physicochemical
[3] = collagen IV + methylglyoxal in phosphate buffer solution, 37° C., 7 days, relative to Control 3 = 100
[4] = Table 3, Control 3 (no suppressor) +282

| Structure (SMILES) | Increase in FI % (Collagen IV) [%] | Redox potential (mV) [2] | other results |
| --- | --- | --- | --- |
| O=C(C[n+]1ccsc1)c1ccccc1.[Br-] [N-Phenacyl thiazolium bromide] |  |  | AGE formation in peritoneum (in words) ([1]; solution (C), methylglyoxal + additive, 5 days): did not form AGE; AGE formed on peritoneum tissue through first 5 days infusion, after second 5 days infusion (in words) ([1]; solution (D), additive alone for second 5 days): disappeared |
| S [Sodium hydrosulfide] | 10 | −620 mV |  |
| O=S([O-])S(=O)(=O)[O-].[Na+].[Na+] [Sodium metabisulfite] |  |  | Increase in FI % (Collagen IV; [3]): 0%; Redox potential (mV) [2, 4]: +17 mV |
| O=S([O-])O.[Na+] [Sodium bisulfite] | 0 | −127 mV |  |
| O=S([O-])([O-])=S.[Na+].[Na+] [Sodium thiosulfate] | 67 | +40 mV |  |
| CNC(=S)NC [Dimethylthiourea] | 2 | −40 mV |  |
| O=S([O-])S(=O)[O-].[Na+].[Na+] [Sodium hydrosulfite (Na2S2O4), Sodium hydrosulfite] |  |  | Increase in FI % (Collagen IV; [3]): 0%; Redox potential (mV) [2, 4]: −360 mV |
